These results are taken from patent US8143304B2, “(3-amino-1,2,3,4-tetrahydro-9 H-carbazol-9-yl)-acetic acid derivatives” (Actelion Pharmaceutical Ltd., priority 2006, dated 2012).

The experiment concerns the target T1, hCRTH2 receptor (Homo sapiens, UniProt Q9Y5Y4).
T1 construct: expressed in transfected cells; host or cells: clonal HEK 293 cell line (membrane preparation)
T1 sequence (Q9Y5Y4 1-395): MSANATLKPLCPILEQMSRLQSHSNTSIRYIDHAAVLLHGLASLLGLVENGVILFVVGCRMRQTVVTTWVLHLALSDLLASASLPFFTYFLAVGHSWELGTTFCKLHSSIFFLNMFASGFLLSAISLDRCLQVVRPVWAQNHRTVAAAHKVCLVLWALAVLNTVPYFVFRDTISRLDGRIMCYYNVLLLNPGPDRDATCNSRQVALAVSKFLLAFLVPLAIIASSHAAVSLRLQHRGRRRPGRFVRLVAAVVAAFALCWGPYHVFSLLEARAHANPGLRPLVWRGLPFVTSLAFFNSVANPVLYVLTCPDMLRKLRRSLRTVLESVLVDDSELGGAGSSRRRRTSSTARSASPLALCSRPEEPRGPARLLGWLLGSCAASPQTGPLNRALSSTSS
As to the kind of experiment: hCRTH2 receptor membranes radioligand binding assay ({3H}-PGD2). As to conditions: {3H}-PGD2 2.5 nM, membranes of HEK 293 cells expressing recombinant hCRTH2 receptor; read-out: hCRTH2 Bdg IC50. As to the method: The biological effect of such compounds may be tested in a variety of in vitro, ex vivo and in vivo assays.
Biological Assays: Preparation of hCRTH2 Receptor Membranes and Radioligand Binding Assay:
Cells are detached from culture plates in 5 ml buffer A per plate (5 mM Tris, pH 7.4, 1 mM MgCl2, 0.1 mM PMSF, 0.1 mM phenanthroline) using a police rubber and transferred into centrifugation tubes and frozen at −80° C. After thawing, the cells are centrifuged at 500 g for 5 min and then resuspended in buffer A. Cells are then fragmented by homogenization with a Polytron cell homogenizer for 30 s. The membrane fragments are collected by centrifugation at 3000 g for 40 min and resuspended in buffer B (50 mM Tris, pH 7.4, 25 mM MgCl2, 250 mM saccharose) and aliquots are stored at […].
Binding assay is performed in a total volume of 250 μl. […] For unspecific binding, PGD2 is added to the reaction mixture at 1 μM final concentration. This binding assay mix is incubated at rt for 90 min and then filtered through a GF/C filter plate. The filter is washed three times with ice cold binding buffer C. Then, Microscint-40 (Packard, 40 μl/well) is added and the receptor bound radioactivity is quantified by scintillation counting in a “TopCount” benchtop microplate scintillation counter (Packard).

A word on the IC50: it is the concentration that inhibits the measured activity by half. Take `O=C(O)Cn1c2c(c3cc(F)ccc31)C[C@@H](NC(=O)CC(c1ccccc1)c1ccccc1)CC2` [(3S)-[3-(3,3-Diphenyl-propionylamino)-6-fluoro-1,2,3,4-tetrahydro-9H-carbazol-9-yl]-acetic acid]: the concentration for half-maximal inhibition (IC50) was determined as 2 nM.

Take `O=C(O)Cn1c2c(c3cc(F)ccc31)C[C@@H](NC(=O)CCc1ccc3c(c1)OCO3)CC2` [(3S)-[3-(3-Benzo[1,3]dioxol-5-yl-propionylamino)-6-fluoro-1,2,3,4-tetrahydro-9H-carbazol-9-yl]-acetic acid]: the IC50 is 15 nM.

As to `O=C(O)Cn1c2c(c3cc(F)ccc31)C[C@@H](N(CC1CCCCC1)C(=O)NCc1ccccc1)CC2` [(3S)-[3-(3-Benzyl-1-cyclohexylmethyl-ureido)-6-fluoro-1,2,3,4-tetrahydro-9H-carbazol-9-yl]-acetic acid], the IC50 worked out at 6 nM.

On to `CCCCNC(=O)N[C@H]1CCc2c(c3ccccc3n2CC(=O)O)C1` [(3S)-[3-(3-Butyl-ureido)-1,2,3,4-tetrahydro-9H-carbazol-9-yl]-acetic acid], for which the IC50 was found to be 896 nM.

Regarding `O=C(O)Cn1c2c(c3cc(F)ccc31)C[C@@H](NC(=O)COc1ccc(Cl)cc1)CC2` [(3S)-{3-[2-(4-Chloro-phenoxy)-acetylamino]-6-fluoro-1,2,3,4-tetrahydro-9H-carbazol-9-yl}-acetic acid], the half-inhibitory concentration (IC50) stood at 9 nM.

On to `O=C(O)Cn1c2c(c3cc(F)ccc31)C[C@@H](NC(=O)CCc1ccc(Cl)cc1Cl)CC2` [(3S)-{3-[3-(2,4-Dichloro-phenyl)-propionylamino]-6-fluoro-1,2,3,4-tetrahydro-9H-carbazol-9-yl}-acetic acid], for which the IC50 came to 16 nM.

Consider `O=C(O)Cn1c2c(c3cc(F)ccc31)C[C@@H](NC(=O)CCc1cc(C(F)(F)F)ccc1C(F)(F)F)CC2` [(3S)-{3-[3-(2,5-Bis-trifluoromethyl-phenyl)-propionylamino]-6-fluoro-1,2,3,4-tetrahydro-9H-carbazol-9-yl}-acetic acid], for which the IC50 was found to be 15 nM.

In the case of `CC(C)(C)OC(=O)Nc1cccc(CCC(=O)N[C@H]2CCc3c(c4cc(F)ccc4n3CC(=O)O)C2)c1` [(3S)-{3-[3-(3-tert-Butoxycarbonylamino-phenyl)-propionylamino]-6-fluoro-1,2,3,4-tetrahydro-9H-carbazol-9-yl}-acetic acid], the IC50 turned out to be 93 nM.

On to `O=C(O)Cn1c2c(c3cc(F)ccc31)C[C@@H](NC(=O)C1Cc3ccccc3N1)CC2` (stereo partly drawn) [(3S)-{3-[(2,3-Dihydro-1H-indole-2-carbonyl)-amino]-6-fluoro-1,2,3,4-tetrahydro-9H-carbazol-9-yl}-acetic acid], for which the IC50 is 11 nM.

Turning to `CN(C(=O)COCc1ccccc1)[C@H]1CCc2c(c3cc(F)ccc3n2CC(=O)O)C1` [(3S)-{3-[(2-Benzyloxy-acetyl)-methyl-amino]-6-fluoro-1,2,3,4-tetrahydro-9H-carbazol-9-yl}-acetic acid], the IC50 was 60 nM.

With `O=C(O)Cn1c2c(c3cc(F)ccc31)C[C@@H](NC(=O)CCc1ccccc1O)CC2` [(3S)-{6-Fluoro-3-[3-(2-hydroxy-phenyl)-propionylamino]-1,2,3,4-tetrahydro-9H-carbazol-9-yl}-acetic acid], the IC50 is 33 nM.

On to `O=C(O)Cn1c2c(c3cc(F)ccc31)C[C@@H](NC(=O)CCc1cccc(OC(F)(F)F)c1)CC2` [(3S)-{6-Fluoro-3-[3-(3-trifluoromethoxy-phenyl)-propionylamino]-1,2,3,4-tetrahydro-9H-carbazol-9-yl}-acetic acid], for which the IC50 was determined as 47 nM.

Take `CS(=O)(=O)c1ccc(CCC(=O)N[C@H]2CCc3c(c4cc(F)ccc4n3CC(=O)O)C2)cc1` [(3S)-{6-Fluoro-3-[3-(4-methanesulfonyl-phenyl)-propionylamino]-1,2,3,4-tetrahydro-9H-carbazol-9-yl}-acetic acid]: the IC50 stood at 72 nM.

As to `CSc1ccc(CCC(=O)N[C@H]2CCc3c(c4cc(F)ccc4n3CC(=O)O)C2)cc1` [(3S)-{6-Fluoro-3-[3-(4-methylsulfanyl-phenyl)-propionylamino]-1,2,3,4-tetrahydro-9H-carbazol-9-yl}-acetic acid], the IC50 came to 14 nM.

For `O=C(O)Cn1c2c(c3cc(F)ccc31)C[C@@H](NC(=O)c1cc3ccccc3[nH]1)CC2` [(3S)-{6-Fluoro-3-[(1H-indole-2-carbonyl)-amino]-1,2,3,4-tetrahydro-9H-carbazol-9-yl}-acetic acid], the concentration for half-maximal inhibition (IC50) was found to be 824 nM.

With `C[C@@H](Cc1ccccc1)C(=O)N(CCOc1ccccc1)[C@H]1CCc2c(c3cc(F)ccc3n2CC(=O)O)C1` [(3S)-{6-Fluoro-3-[((S)-2-methyl-3-phenyl-propionyl)-(2-phenoxy-ethyl)-amino]-1,2,3,4-tetrahydro-9H-carbazol-9-yl}-acetic acid], the IC50 worked out at 21 nM.

Regarding `CCN(C(=O)CCc1ccccc1)[C@H]1CCc2c(c3cc(F)ccc3n2CC(=O)O)C1` [(3S)-{6-Fluoro-3-[ethyl-(3-phenyl-propionyl)-amino]-1,2,3,4-tetrahydro-9H-carbazol-9-yl}-acetic acid], the IC50 amounted to 16 nM.
